Our source for the EC50 values is ChEMBL document CHEMBL1151258, “New cytotoxic cembranes from the sea pen Gyrophyllum sibogae” (2004).

Common to all, as to type: functional
Settings in all cases: read-out: ED50 (the source's name)

The subject of one test is DU-145. In words: Cytotoxicity against human DU145 cells.
In the next test the test system is K562. In words: Cytotoxicity against human K562 cells.
The test system of a further test is HT-29. Put plainly: Cytotoxicity against human HT-29 cells.
Test [1] in a line: Cytotoxicity against human IGROV cells.

For the compound `C/C1=C/C=C(\C(C)C)C(=O)[C@@H](O)[C@H](C)CCC(=O)[C@H](CO)CCC1`, the EC50 with DU-145 was determined as 82 nM; in the test on K562 it was 62.7 nM; in the test with HT-29, 14.5 nM; in test [1], 90.3 nM.
